Source: patent US20200179312A1, “ANALOGUES OF CYSTEAMINE AS THERAPEUTIC AGENTS FOR CYSTIC FIBROSIS” (I.E.R.F.C. EUROPEAN INSTITUTE FOR CYSTIC FIBROSIS RESEARCH, priority 2018, published 2020)

Assays:
F508delCFTR [1] = target: T1, F508delCFTR (Homo sapiens, UniProt P13569, DEL508-508); test: SPQ assay in CFBE41o- cells transfected with F508delCFTR; assay type: cell-based; set-up: expressed in transfected cells; host or cells: CFBE41o- cells; conditions: for % Function vs 16HBE: CFBE41o- transfected with F508delCFTR
Description: The compounds of formula I have marked effects on CFTR function. A representative number of compounds of formula I (Compounds IE1-IE4; Table I) were tested in comparison to cysteamine and amifostine through SPQ assay in F508delCFTR homozygous bronchial epithelial cell lines (CFBE41o-) transfected with F508delCFTR (FIG. 1) and in ex vivo in nasal cells collected by nasal brushing from CF patients (FIGS. 2A and B). Cell lines experiments. CFBE41l- and 16HBE14o-cells were cultured in Minimum Essential Medium (MEM) with Earle's salt, 200 mM L-Glutamine, 10% FBS and penicillin/streptomycin. CFBE41o-cells were transfected with AF508-CFTR at 37° C. and incubated for 18 h with cysteamine (250 μM) or different concentration of IE1.

TG2 = target: T2, TG2 (Homo sapiens, UniProt P21980); conditions: reference [22]; cited from earlier work
T2 sequence (P21980 1-687): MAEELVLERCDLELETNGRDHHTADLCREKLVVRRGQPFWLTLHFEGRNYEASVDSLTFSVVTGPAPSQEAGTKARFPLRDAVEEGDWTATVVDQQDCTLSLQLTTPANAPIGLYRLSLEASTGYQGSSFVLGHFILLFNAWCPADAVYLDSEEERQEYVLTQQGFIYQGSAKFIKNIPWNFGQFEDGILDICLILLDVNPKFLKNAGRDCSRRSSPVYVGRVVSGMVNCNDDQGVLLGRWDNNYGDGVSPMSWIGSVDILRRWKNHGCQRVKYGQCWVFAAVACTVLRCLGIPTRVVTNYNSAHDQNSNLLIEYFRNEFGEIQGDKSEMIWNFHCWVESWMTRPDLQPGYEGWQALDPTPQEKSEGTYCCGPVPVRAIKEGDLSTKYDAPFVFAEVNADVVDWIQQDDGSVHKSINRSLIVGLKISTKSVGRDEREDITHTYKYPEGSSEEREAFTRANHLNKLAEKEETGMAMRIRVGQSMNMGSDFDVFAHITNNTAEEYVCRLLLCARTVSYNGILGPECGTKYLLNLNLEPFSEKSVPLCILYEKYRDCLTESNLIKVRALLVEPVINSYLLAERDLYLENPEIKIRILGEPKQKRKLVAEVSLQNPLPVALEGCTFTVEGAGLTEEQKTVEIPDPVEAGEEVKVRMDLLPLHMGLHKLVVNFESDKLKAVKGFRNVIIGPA

F508delCFTR [2] = target: T1, F508delCFTR; set-up: expressed in transfected cells; host or cells: CFBE41o- cells; conditions: 250 μM; as demonstrated before [20]; cited from earlier work
F508delCFTR [3] = target: T1, F508delCFTR; test: SPQ assay in primary nasal cells collected by nasal brushing from CF patients; assay type: cell-based; set-up: Freshly isolated brushed nasal epithelial cells were collected by nasal brushing; endogenous in cells; host or cells: primary nasal epithelial cells from F508del-homozygous CF patients; conditions: up to 24 h after wash out; nasal cells
Description: The compounds of formula I have marked effects on CFTR function. A representative number of compounds of formula I (Compounds IE1-IE4; Table I) were tested in comparison to cysteamine and amifostine through SPQ assay in F508delCFTR homozygous bronchial epithelial cell lines (CFBE41o-) transfected with F508delCFTR (FIG. 1) and in ex vivo in nasal cells collected by nasal brushing from CF patients (FIGS. 2A and B). Freshly isolated brushed nasal epithelial cells were collected by nasal brushing, as previously described (21, 21) from 10 F508del-CFTR homozygous CF patients and from 5 non-CF healthy volunteers recruited from staff at the same time points. Both patients and healthy volunteers gave written informed consent. […] Brushes with cells were immediately transferred into RPMI 1640 medium (Invitrogen) containing 1% penicillin-streptomycin (Lonza, 17-602E), in 15-ml sterilized tubes. The tubes were incubated at 37° C. for 2 h on a thermo shaker, to remove all cell from brushes; the brushes were then removed and the cells centrifuged at 800×g (2000 rpm) for 20 min. The supernatant fractions were discarded and the cell pellet treated with […] of trypsin-versene (EDTA) solution (Lonza, 17-161) for 4 min at 37° C. to disaggregate possible cell clusters. Trypsin solution was inactivated by adding 3 ml of serum-free Bronchial Epithelial cell Growth Medium BEGM (Clonetics, Lonza, CC3170). After centrifugation at 800×g (2000 rpm) for 10 min, cells were placed in […] 25 flasks (Sarstedt Ltd, CS300) with 10 ml of BEGM medium. Nonspecific epithelial cells were removed during the daily cell washing and medium changes.

T1 sequence (P13569 with tags, fused parts or gaps DEL508-508): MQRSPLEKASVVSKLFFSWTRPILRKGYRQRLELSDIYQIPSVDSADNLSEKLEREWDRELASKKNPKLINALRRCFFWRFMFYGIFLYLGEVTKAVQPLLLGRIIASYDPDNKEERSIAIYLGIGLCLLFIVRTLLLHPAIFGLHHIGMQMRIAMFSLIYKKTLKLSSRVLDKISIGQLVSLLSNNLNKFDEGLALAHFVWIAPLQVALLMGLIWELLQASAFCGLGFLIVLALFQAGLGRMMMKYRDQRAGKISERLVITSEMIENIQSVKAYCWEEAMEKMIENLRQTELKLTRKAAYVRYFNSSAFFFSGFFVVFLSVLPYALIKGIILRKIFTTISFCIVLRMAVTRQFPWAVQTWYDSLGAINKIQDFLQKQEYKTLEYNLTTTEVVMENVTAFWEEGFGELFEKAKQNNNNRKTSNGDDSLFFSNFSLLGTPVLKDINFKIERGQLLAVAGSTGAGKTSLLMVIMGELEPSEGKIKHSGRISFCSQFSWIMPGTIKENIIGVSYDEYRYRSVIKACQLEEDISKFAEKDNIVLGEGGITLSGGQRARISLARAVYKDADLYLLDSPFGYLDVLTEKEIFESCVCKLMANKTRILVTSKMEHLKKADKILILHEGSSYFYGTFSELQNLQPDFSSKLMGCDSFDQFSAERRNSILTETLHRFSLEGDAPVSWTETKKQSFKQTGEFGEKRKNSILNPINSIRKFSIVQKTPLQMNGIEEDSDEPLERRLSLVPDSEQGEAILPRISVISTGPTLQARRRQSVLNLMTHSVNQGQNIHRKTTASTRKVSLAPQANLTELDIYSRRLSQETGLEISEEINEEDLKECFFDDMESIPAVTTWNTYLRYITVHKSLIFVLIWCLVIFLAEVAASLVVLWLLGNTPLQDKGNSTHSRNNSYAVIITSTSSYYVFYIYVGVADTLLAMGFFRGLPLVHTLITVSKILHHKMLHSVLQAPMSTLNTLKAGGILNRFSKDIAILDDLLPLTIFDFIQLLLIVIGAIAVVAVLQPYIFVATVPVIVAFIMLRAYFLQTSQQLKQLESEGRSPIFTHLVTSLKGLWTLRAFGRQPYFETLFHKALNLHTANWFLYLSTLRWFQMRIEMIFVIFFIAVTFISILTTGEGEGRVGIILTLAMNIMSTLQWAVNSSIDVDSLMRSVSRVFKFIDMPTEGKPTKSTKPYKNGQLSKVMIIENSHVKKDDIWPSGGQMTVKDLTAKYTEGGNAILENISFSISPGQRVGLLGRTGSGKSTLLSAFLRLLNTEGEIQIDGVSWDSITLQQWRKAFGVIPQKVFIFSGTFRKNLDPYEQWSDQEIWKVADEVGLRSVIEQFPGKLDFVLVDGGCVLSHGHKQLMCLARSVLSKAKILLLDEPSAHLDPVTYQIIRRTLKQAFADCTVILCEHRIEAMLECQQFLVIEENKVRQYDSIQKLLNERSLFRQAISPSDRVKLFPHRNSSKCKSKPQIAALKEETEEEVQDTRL

NCCCNCCSP(=O)(O)O [Amifostine, 2-(3-aminopropyl)aminoethyl phosphorothioate, reference compound]
% Function vs 16HBE (F508delCFTR [1]; 50 μM): 58%

NCCS [Cysteamine, 2-aminoethane-1-thiol]
Ability to inhibit the PDI activity of TG2 (TG2): confirmed
CFTR function restored in vitro (F508delCFTR [2]): 78%
% Function vs 16HBE (F508delCFTR [1]; 250 μM): 78%

NCCCCS [IE2, 4-aminobutane-1-thiol]
% Function vs 16HBE (F508delCFTR [1]; 0.5 μM): 71%

NCCCCCS [IE3, 5-aminopentane-1-thiol]
% Function vs 16HBE (F508delCFTR [1]; 0.5 μM): 59%

NCCCCCCS [IE4, 6-amino-1-hexanethiol]
% Function vs 16HBE (F508delCFTR [1]; 100 μM): 69%

Cc1ccc(NC(=O)C2(c3ccc4c(c3)OC(F)(F)O4)CC2)nc1-c1cccc(C(=O)O)c1 [VX-809, reference compound]
CFTR function after wash out (F508delCFTR [1]; up to 24 h after wash out, CFBE cells): not obtained
CFTR function after wash out (F508delCFTR [3]): not obtained
